Data as given in patent US20250197428A1, “INHIBITORS OF KIF18A AND USES THEREOF” (ACCENT THERAPEUTICS, INC., priority 2022, published 2025).
pIC50: −log10 of the molar value. Where two headings read alike, the source gives them in different places.

Tests used:
KIF18A = KIF18A (Homo sapiens (Human), UniProt Q8NI77); assay: KIF18A Biochemical Assay (ATPase, ADP-Glo)
[1] = Caco-2 permeation assay, bidirectional permeability; format: in vitro ADME; details: human, Caco-2, pH 7.4, 5 μM, Papp(B-A)/Papp(A-B)
Protocol: 1. Caco-2 Permeation Assay: Evaluation of the Bidirectional Permeabilities of Compounds.
Samples were analyzed through LC/MS/MS for estimating the apparent permeability coefficients (Papp) of compounds across Caco-2 cell monolayers. Caco-2 cells (American Type Culture Collection) were incubated and seeded onto HTS Transwell-96 Well Permeable Supports (Corning Corporation) for 14 days using a cell medium consisting of Dulbecco's Modified Eagle's Medium (DMEM) with high glucose and L-glutamine supplemented with 10% FBS, 1× penicillin-streptomycin mixture and 1×non-essential amino acids (NEAA). Cell monolayer integrity was measured using an automated tissue resistance measuring system (World Precision Instruments). Stock solutions of compounds and control compounds in DMSO were diluted with HBSS (10 mM HEPES, pH 7.4) to reach a final concentration of 5 μM with a final concentration of DMSO <0.1%. HBSS was then removed after 30 minutes of preincubation, and 75 μL of test compound was added to the apical compartment of the Transwell insert. The basolateral compartment was filled with 235 μL of HBSS (10 mM HEPES, pH 7.4) containing 2% BSA. Rate of drug transport in the basolateral to apical direction was obtained by adding 235 μL of test compound to the receiver plate wells (basolateral compartment) and filling with 75 μL of HBSS (10 mM HEPES, pH 7.4) containing 2% BSA. Time 0 samples were prepared by transferring 25 μL of 5 μM working solution to wells of the 96-deepwell plate containing 25 μL HBSS (10 mM HEPES and 2% BSA, pH 7.4), followed by the addition 200 μL of cold methanol containing appropriate internal standards (100 nM alprazolam, 200 nM labetalol, 200 nM caffeine and 200 nM diclofenac). After incubating at 37° C. for 2 h, 25 μL samples from donor sides (apical compartment) were transferred to a 96-well plate containing 25 μL HBSS (10 mM HEPES and 2% BSA, pH 7.4). 25 μL samples from receiver sides (basolateral compartment) were removed and transferred to a new plate containing 25 μL HBSS (10 mM HEPES, pH 7.4). 200 μL of cold methanol containing internal standards (100 nM alprazolam, 200 nM labetalol, 200 nM caffeine and 200 nM diclofenac) was added to terminate the reaction. Samples were vortexed for 5 minutes and then centrifuged at 3,220 g for 40 minutes. An aliquot of 100 μL of the supernatant is mixed with 100 μL of ultra-pure water for LC-MS/MS analysis. All incubations are performed in duplicate. Solutions were discarded from the transwell plate. 100 μL Lucifer Yellow solution (100 μM in HBSS) was added to each well of transwell insert and 300 μL of HBSS to each well of receiver. After incubating at 37° C. for 30 minutes, 80 μL was aliquotted from each well of apical and basolateral sides to a solid black plate. The plate was then read with Tecan Infinite™ M 200 (Excitation/Emission wavelength […]).
All calculations were carried out using Microsoft Excel. Peak areas were determined from extracted ion chromatograms. The leakage of Lucifer Yellow, in unit of percentage (%), can be calculated using the following equation: […]
LY leakage of <1% is acceptable to indicate the well-qualified Caco-2 monolayers. The apparent permeability coefficient (Papp), in units of centimeter per second, can be calculated for Caco-2 drug transport assays using the following equation: […]
Where VA is the volume (in mL) in the receiver well (0.235 mL for Ap→Bl flux and 0.075 mL for Bl→Ap flux), Area is the surface area of the membrane (0.143 cm^2 for HTS Transwell-96 Well Permeable Supports), and time is the total transport time in seconds. The efflux ratio can be determined using the following equation: […]
Where Papp (B-A) indicates the apparent permeability coefficient in basolateral to apical direction, and Papp (A-B) indicates the apparent permeability coefficient in apical to basolateral direction.
The recovery can be determined using the following equation: […]

OVCAR-3 cells = assay: In vitro anti-proliferative activity assay in cancer cell line OVCAR-3 (CellTiter-Glo, 4- or 7-day); format: cell-based; details: Homo sapiens, read-out: OVCAR-3 cellular antiproliferation assay IC50

Chain of KIF18A (Q8NI77 1-367): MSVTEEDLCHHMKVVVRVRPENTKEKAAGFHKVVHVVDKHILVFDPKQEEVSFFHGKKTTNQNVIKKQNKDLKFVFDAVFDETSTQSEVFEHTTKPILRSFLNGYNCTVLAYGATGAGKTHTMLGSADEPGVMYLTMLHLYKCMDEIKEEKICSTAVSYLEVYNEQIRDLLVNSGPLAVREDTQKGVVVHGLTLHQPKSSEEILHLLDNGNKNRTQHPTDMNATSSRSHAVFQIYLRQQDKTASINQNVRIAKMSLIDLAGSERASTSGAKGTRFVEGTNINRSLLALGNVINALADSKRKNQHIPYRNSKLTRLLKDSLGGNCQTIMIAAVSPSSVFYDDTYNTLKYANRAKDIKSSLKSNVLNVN
Chain of KIF18A (P02550 whole entry partner): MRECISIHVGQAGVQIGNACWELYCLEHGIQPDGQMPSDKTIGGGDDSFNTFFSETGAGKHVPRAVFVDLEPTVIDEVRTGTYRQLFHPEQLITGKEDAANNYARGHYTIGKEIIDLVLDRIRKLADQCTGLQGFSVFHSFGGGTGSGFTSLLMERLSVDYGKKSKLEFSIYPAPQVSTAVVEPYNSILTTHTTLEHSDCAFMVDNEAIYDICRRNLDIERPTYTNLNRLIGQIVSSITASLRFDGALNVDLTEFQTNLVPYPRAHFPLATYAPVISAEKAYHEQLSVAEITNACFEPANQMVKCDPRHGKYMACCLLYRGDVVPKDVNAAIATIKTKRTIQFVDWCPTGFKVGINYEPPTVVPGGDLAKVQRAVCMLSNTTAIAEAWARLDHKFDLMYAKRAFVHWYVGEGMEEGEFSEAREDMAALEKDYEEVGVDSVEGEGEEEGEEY
Chain of KIF18A (P02554 whole entry partner): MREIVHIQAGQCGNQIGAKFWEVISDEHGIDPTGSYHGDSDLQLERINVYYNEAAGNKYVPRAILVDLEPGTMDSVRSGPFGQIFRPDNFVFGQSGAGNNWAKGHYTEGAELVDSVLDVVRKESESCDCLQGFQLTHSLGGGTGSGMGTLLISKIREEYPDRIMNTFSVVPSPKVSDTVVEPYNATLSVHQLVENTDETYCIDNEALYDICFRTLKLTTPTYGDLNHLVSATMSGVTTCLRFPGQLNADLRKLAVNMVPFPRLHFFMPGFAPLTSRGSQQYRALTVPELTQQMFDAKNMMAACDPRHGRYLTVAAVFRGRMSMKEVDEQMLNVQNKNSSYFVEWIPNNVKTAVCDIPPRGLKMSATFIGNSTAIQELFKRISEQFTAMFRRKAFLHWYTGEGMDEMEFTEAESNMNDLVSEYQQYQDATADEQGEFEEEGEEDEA

Row | SMILES | pIC50 (KIF18A) | efflux ratio at 2 h, 5 μM [1] | pIC50 (OVCAR-3 cells; OVCAR-3, 168 h, 7-day assay) | pIC50 (OVCAR-3 cells; OVCAR-3, 96 h, 4-day assay)
1 | Cc1cc(NC(=O)c2ccc(NS(=O)(=O)[C@H](C)CO)cc2N2CC[Si](C)(C)CC2)nc(N2CCC(F)(F)CC2)n1 [Example 111] | > 7.00 | ≥ 10 | > 7.00 | 
2 | C[Si]1(C)CCN(c2cc(NS(=O)(=O)CCO)ccc2NC(=O)c2cccc(N3CCC(F)(F)CC3)n2)CC1 [Example 96] |  | < 10 |  | > 7.00
3 | CC(C)(C)NS(=O)(=O)c1cccc(NC(=O)c2ccc(NS(=O)(=O)C(C)(C)C)cc2N2CC[Si](C)(C)CC2)c1 [Example 4, N-(3-(N-(tert-butyl)sulfamoyl)phenyl)-2-(4,4-dimethyl-1,4-azasilinan-1-yl)-4-((1,1-dimethylethyl)sulfonamido)benzamide] | 6.00 to 6.30 | < 10 |  | 6.30 to 7.00
4 | CNS(=O)(=O)Nc1ccc(C(=O)Nc2cc(C)nc(C3CCC(F)(F)CC3)n2)c(N2CC[Si](C)(C)CC2)c1 [Example 118] | > 7.00 | < 10 | 6.30 to 7.00 | 
5 | CC(C)(C)NS(=O)(=O)c1cccc(NC(=O)c2ccc(NS(=O)(=O)CCO)cc2N2CC[Si](C)(C)CC2)n1 [Example 98] | > 7.00 | < 10 |  | > 7.00
6 | Cc1cc(NC(=O)c2ccc(NS(C)(=O)=O)cc2N2CC[C@]3(C(F)F)C[C@@H]3C2)nc(N2CCC(F)(F)CC2)n1 [Example 54] | > 7.00 | < 10 | 6.30 to 7.00 | 
7 | Cc1cc(NC(=O)c2ccc(NS(=O)(=O)NCCO)cc2N2CC[Si](C)(C)CC2)nc(N2CCC(F)(F)CC2)n1 [Example 117] | 6.30 to 7.00 | < 10 | 6.30 to 7.00 | 
8 | C[Si]1(C)CCN(c2cc(NS(=O)(=O)CCO)ccc2C(=O)Nc2cccc(OC[C@@H](O)C(F)(F)F)n2)CC1 [Example 121] | > 7.00 | < 10 | > 7.00 | 
9 | CC1CN(c2nccc(NC(=O)c3ccc(NS(=O)(=O)CCO)cc3N3CC[Si](C)(C)CC3)n2)CCO1 (stereo not drawn) [Example 11] | > 7.00 | < 10 |  | > 7.00
10 | C[Si]1(C)CCN(c2cc(NS(=O)(=O)CCN)ccc2C(=O)Nc2cccc(N3CCC(F)(F)CC3)n2)CC1 [Example 100] | > 7.00 | < 10 | 6.30 to 7.00 | 
11 | Cc1cc(NC(=O)c2ccc(NS(=O)(=O)CCO)cc2N2CC[C@@]3(C(F)F)C[C@H]3C2)nc(N2CCC(F)(F)CC2)c1 [Example 48, 2-((1R,6S)-6-(difluoromethyl)-3-azabicyclo[4.1.0]heptan-3-yl)-N-(6-(4,4-difluoropiperidin-1-yl)-4-methylpyridin-2-yl)-4-((2-hydroxyethyl)sulfonamido)benzamide] | > 7.00 | ≥ 10 |  | > 7.00
12 | Cc1cc(NC(=O)c2ccc(NS(=O)(=O)CCO)nc2N2CC[Si](C)(C)CC2)nc(N2CCC(F)(F)CC2)n1 [Example 109] | > 7.00 | < 10 | 6.00 to 6.30 | 
13 | Cc1cc(NC(=O)c2ccc(NS(=O)(=O)NCCO)cc2N2CC[C@]3(C(F)F)C[C@@H]3C2)nc(N2CCC(F)(F)CC2)n1 [Example 56] | > 7.00 | ≥ 10 | 6.30 to 7.00 | 
14 | Cc1cc(NC(=O)c2ccc(NS(=O)(=O)CCO)cc2N2CC[Si](C)(C)CC2)nc(N2CCC(F)(F)CC2)c1 [Example 8, N-(6-(4,4-difluoropiperidin-1-yl)-4-methylpyridin-2-yl)-2-(4,4-dimethyl-1,4-azasilinan-1-yl)-4-((2-hydroxyethyl)sulfonamido)benzamide] | 6.30 to 7.00 | < 10 |  | > 7.00
15 | O=C(Nc1ccnc(C2CCC(F)(F)CC2)n1)c1ccc(NS(=O)(=O)CCO)cc1N1CC[C@]2(C(F)F)C[C@@H]2C1 [Example 75] | > 7.00 | < 10 | > 7.00 | 
16 | Cc1cc(NC(=O)c2ccc(NS(=O)(=O)CCO)cc2N2CC[Si](C)(C)CC2)nc(N2CCOC3(CC3)C2)n1 [Example 102] | > 7.00 | ≥ 10 | > 7.00 | 
17 | C[Si]1(C)CCN(c2cc(NS(=O)(=O)CCO)ccc2C(=O)Nc2cccc(OCC(O)C(F)(F)F)n2)CC1 (stereo not drawn) [Example 119] | > 7.00 | < 10 | > 7.00 | 
18 | C[Si]1(C)CCN(c2cc(NS(=O)(=O)CCO)c(F)cc2NC(=O)c2ccnc(N3CCC(F)(F)CC3)n2)CC1 [Example 90] |  | < 10 | 6.30 to 7.00 | 
19 | CC(=O)NCCS(=O)(=O)Nc1ccc(C(=O)Nc2cccc(N3CCC(F)(F)CC3)n2)c(N2CC[Si](C)(C)CC2)c1 [Example 104] | > 7.00 | < 10 | 6.30 to 7.00 | 
20 | C[Si]1(C)CCN(c2cc(NS(=O)(=O)CCO)ccc2C(=O)Nc2ccnc(N3CCCC(C#N)C3)n2)CC1 (stereo not drawn) [Example 94] |  | < 10 |  | 6.30 to 7.00
21 | Cc1cc(NC(=O)c2ccc(NS(=O)(=O)CCO)cc2N2CCC3(C)CC3C2)nc(N2CCC(F)(F)CC2)n1 (stereo not drawn) [Example 37] | > 7.00 | < 10 |  | > 7.00
22 | C[Si]1(C)CCN(c2cc(NS(=O)(=O)CCO)ccc2NC(=O)c2ccnc(OCCC(F)(F)F)n2)CC1 [Example 88] | 6.30 to 7.00 | < 10 | 6.00 to 6.30 | 
23 | Cc1cc(NC(=O)c2ccc(NS(=O)(=O)CCO)cc2N2CC[Si](C)(C)CC2)nc(N2CCOC(F)(F)C2)n1 [Example 115] | > 7.00 | ≥ 10 | 6.30 to 7.00 | 
24 | Cc1cc(NC(=O)c2ccc(NS(=O)(=O)CCO)cc2N2CC[Si](C)(C)CC2)nc(N2CCC3(CC3)C2)n1 [Example 21] | 6.30 to 7.00 | < 10 |  | 6.30 to 7.00
25 | C[Si]1(C)CCN(c2cc(NS(=O)(=O)CCO)ccc2C(=O)Nc2cncc(N3CCC(F)(F)CC3)n2)CC1 [Example 108] | > 7.00 | < 10 | > 7.00 | 
26 | Cc1cc(NC(=O)c2ccc(NS(=O)(=O)CCO)cc2N2CC[C@]3(C(F)F)C[C@@H]3C2)nc(N2CCC(F)(F)CC2)n1 [Example 58] | > 7.00 | ≥ 10 | > 7.00 | 
27 | Cc1cc(NC(=O)c2c(F)cc(NS(=O)(=O)CCO)cc2N2CC[C@@]3(C(F)F)C[C@H]3C2)nc(N2CCC(F)(F)CC2)n1 [Example 72] | > 7.00 | ≥ 10 | 6.30 to 7.00 | 
28 | O=C(Nc1ccnc(N2CCC(F)(F)CC2)n1)c1cc2cnn(CCO)c2cc1N1CCC2(CC1)CC2 [Example 12] | 6.00 to 6.30 | < 10 |  | < 6.00
29 | C[Si]1(C)CCN(c2cc(NS(=O)(=O)CCO)ccc2C(=O)Nc2cccc(N3CCC(F)(F)CC3)c2)CC1 [Example 6, N-(3-(4,4-difluoropiperidin-1-yl)phenyl)-2-(4,4-dimethyl-1,4-azasilinan-1-yl)-4-((2-hydroxyethyl)sulfonamido)benzamide] | > 7.00 | < 10 |  | > 7.00
30 | Cc1cc(NC(=O)c2cnc(NS(=O)(=O)CCO)cc2N2CC[Si](C)(C)CC2)nc(N2CCC(F)(F)CC2)n1 [Example 106] | > 7.00 | < 10 | > 7.00 | 
